Laboratory results published in ChEMBL document CHEMBL1144975, “Improving the selectivity of acyclic nucleoside analogues as inhibitors of human mitochondrial thymidine kinase: replacement of a triphenylmethoxy moiety with substituted amines and carboxamides” (Bioorg Med Chem Lett, 2003).

Target: T1, Thymidine kinase, cytosolic (Homo sapiens, UniProt P04183)
T1 sequence (P04183 whole entry): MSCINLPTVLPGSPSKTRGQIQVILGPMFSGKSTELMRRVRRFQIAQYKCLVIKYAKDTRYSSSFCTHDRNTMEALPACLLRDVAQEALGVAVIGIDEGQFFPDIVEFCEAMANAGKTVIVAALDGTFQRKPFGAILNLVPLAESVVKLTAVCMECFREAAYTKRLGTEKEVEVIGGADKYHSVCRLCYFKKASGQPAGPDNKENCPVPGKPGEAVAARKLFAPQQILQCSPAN
Experiment: Inhibitory concentration on phosphorylation of [methyl-3H]-dTh by human Thymidine Kinase 1

IC50: > 500 µM
Compound: Cc1cn(C/C=C\CN(Cc2ccccc2)Cc2ccccc2)c(=O)[nH]c1=O
